Bases are written 5' to 3'; sugars and linkages follow in the same order, as letters with counts (s phosphorothioate, o phosphodiester; PS: all linkages phosphorothioate). The collection does not say whether C is 5-methylated. l = locked nucleic acid (LNA); d = 2'-deoxy (DNA)

The target in the data set is Tau. The experiment in a line: rat primary cortical neurons, FLIPR, 25 uM ASO.
With “ATTCCTTTCAATGACCA (sugars l4 d11 l2, PS)”, the calcium oscillation score was 49.7 % of control.

Turning to GGTCTGAGCTACCAGG (sugars l3 d10 l3, PS), the calcium oscillation score was 14.8 % of control.

Take “CTTTATTTCCAAATTCACT (sugars l4 d10 l2 d1 l2, PS)”: the calcium oscillation score was 93.2 % of control.

For “CCAATTAACCGAACTGCGAG (sugars l3 d14 l3, PS)”, the calcium oscillation score is 41.4 % of control.

Regarding “AATTCACACAACAAACTAT (sugars l4 d11 l4, PS)”, the calcium oscillation score is 74.5 % of control.

With “ATTAATTATTAAATCTTCT (sugars l4 d11 l4, PS)”, the calcium oscillation score was 63.9 % of control.

As to “TCCACCCTTACACATAG (sugars l3 d12 l2, PS)”, the calcium oscillation score is 40.4 % of control.

For “CTTTACCCATCTTAATTCAT (sugars l3 d15 l2, PS)”, the calcium oscillation score is 82.1 % of control.

TCATAGTCACTCTGGT (sugars l3 d10 l3, PS): the calcium oscillation score was 85.7 % of control.

Turning to “TTCTTTTTTTTTCCACACTC (sugars l3 d15 l2, PS)”, the calcium oscillation score was 27.4 % of control.

Regarding “CATTTTTTATTCATAACTTT (sugars l4 d12 l4, PS)”, the calcium oscillation score was 59.4 % of control.

In the case of “TATCCAGCCATATTTCAACT (sugars l3 d14 l3, PS)”, the calcium oscillation score was 47.6 % of control.

As to “AACGCACCAGGAACCTTCCA (sugars l3 d14 l3, PS)”, the calcium oscillation score is 51.4 % of control.

For the sequence “ATTCATTTTACTTTACTTTT (sugars l4 d12 l4, PS)”, the calcium oscillation score was 88.6 % of control.

Turning to “CCTCCCTTTAATGCCAGGCC (sugars l3 d14 l3, PS)”, the calcium oscillation score is 34.2 % of control.

Consider “CCCATTCAGATCTATCC (sugars l2 d13 l2, PS)”, for which the calcium oscillation score is 102 % of control.

With “TGTCCTCACTTTACACAT (sugars l4 d12 l2, PS)”, the calcium oscillation score was 39.8 % of control.

As to “ACTCTTTGAACACCCCAT (sugars l4 d12 l2, PS)”, the calcium oscillation score was 38.3 % of control.

For “TGATATTGTCCAGGGACCCA (sugars l3 d14 l3, PS)”, the calcium oscillation score is 0 % of control.

Regarding “TCTTTATTAACACTCCA (sugars l4 d10 l3, PS)”, the calcium oscillation score is 72.6 % of control.

As for “CCATCATACTCCAAGTT (sugars l3 d12 l2, PS)”, the calcium oscillation score was 60.8 % of control.

As to TAGCCCTAAAGTCC (sugars l3 d8 l3, PS), the calcium oscillation score is 87.6 % of control.

CTACTATTTACTATGC (sugars l3 d9 l4, PS): the calcium oscillation score is 66.8 % of control.

In the case of “CTAGTTATACAGTTGGCCCT (sugars l3 d14 l3, PS)”, the calcium oscillation score is 33.3 % of control.

Consider “TCCTTTGTAATTCCTTCT (sugars l3 d13 l2, PS)”, for which the calcium oscillation score was 56.4 % of control.

Take “GAACTTCTAGTTATACAGTT (sugars l3 d14 l3, PS)”: the calcium oscillation score is 26.2 % of control.

Regarding “CGAGTCTACCATGTCGATGC (sugars l3 d14 l3, PS)”, the calcium oscillation score was 78.5 % of control.

Turning to “TCATCTTTTCTAGAACCC (sugars l3 d13 l2, PS)”, the calcium oscillation score is 48.4 % of control.

For the sequence CGAACTGCGAGGAGCA (sugars l3 d10 l3, PS), the calcium oscillation score was 2.71 % of control.

As for “ACTCAAATCAATTCTCATTT (sugars l4 d12 l4, PS)”, the calcium oscillation score was 70.1 % of control.

Take “TATTTCCAAATTCACTTTTA (sugars lldlldddddddddllddll, PS)”: the calcium oscillation score was 114 % of control.

For “CTTTATTTCCAAATTCACTT (sugars l3 d14 l3, PS)”, the calcium oscillation score is ≥ 200 % of control.

In the case of GGCGGCGCAGGCGCGA (sugars l3 d10 l3, PS), the calcium oscillation score was 49.6 % of control.

With “TCCATTTTCTGACTCTA (sugars l3 d12 l2, PS)”, the calcium oscillation score was 40.4 % of control.

With GATACATGCGTCCTTT (sugars l3 d10 l3, PS), the calcium oscillation score was 110 % of control.

As to “GACGTGGGTGATATTGTCCA (sugars l3 d14 l3, PS)”, the calcium oscillation score was 0 % of control.

In the case of TTGTACACGATCTCCG (sugars l3 d10 l3, PS), the calcium oscillation score is 55.2 % of control.

As to “GTCTTCACATCCCAACT (sugars l4 d11 l2, PS)”, the calcium oscillation score was 82.1 % of control.

“ACTCTTTGAACACCCCA (sugars l2 d12 l3, PS)”: the calcium oscillation score was 88.9 % of control.

As to “CATCTACTTTCTGTCACC (sugars l2 d14 l2, PS)”, the calcium oscillation score is 63.4 % of control.

With “AAGCAGGTTAAGTGATTAAC (sugars l3 d14 l3, PS)”, the calcium oscillation score was 12.9 % of control.

For the sequence “ACTTTATTTCCAAATTCACTTTTAC (sugars l1 d19 l5, PS)”, the calcium oscillation score is 86.5 % of control.

For the sequence “GTCTTTATTAACACTCC (sugars l4 d11 l2, PS)”, the calcium oscillation score was 63.3 % of control.

On to GTCCCGAGCCAAAGC (sugars l3 d9 l3, PS), for which the calcium oscillation score is 31.3 % of control.

With “CCTTTTCTACTCTACTCT (sugars l3 d13 l2, PS)”, the calcium oscillation score was 63.3 % of control.

“CTTCAGGTCTGGCATGGGCA (sugars l3 d14 l3, PS)”: the calcium oscillation score is 0 % of control.

As for TAGTCACTCTGGTGA (sugars l3 d9 l3, PS), the calcium oscillation score is 78.1 % of control.

Turning to “TCAATTTCCCTGTTAAT (sugars l4 d11 l2, PS)”, the calcium oscillation score is 53.4 % of control.

Turning to ATGATTGTGGGCTTA (sugars l3 d9 l3, PS), the calcium oscillation score was 7.83 % of control.

Regarding “CATTATTCTTTTTTTTTCCA (sugars l4 d14 l2, PS)”, the calcium oscillation score was 43.3 % of control.

For the sequence AGTGGAGCCGATCTTG (sugars l3 d10 l3, PS), the calcium oscillation score was 0 % of control.

Consider “ATTTCCAAATTCACTTTTAC (sugars l5 d11 l4, PS)”, for which the calcium oscillation score was 78.8 % of control.

For TTTACAAAGTCCACTTT (sugars l4 d9 l4, PS), the calcium oscillation score is 53 % of control.

Take “ATTTATTAATTCATAAATGA (sugars l3 d14 l3, PS)”: the calcium oscillation score was 46.3 % of control.

As to GGGACGTGGGTGATAT (sugars l3 d10 l3, PS), the calcium oscillation score was 27.6 % of control.

With “CACTTTCCTAATTCCCAAA (sugars l3 d14 l2, PS)”, the calcium oscillation score is 68 % of control.

On to CTCCTGGTTTATGATG (sugars l3 d10 l3, PS), for which the calcium oscillation score was 31.3 % of control.

“TGTAATTTTCCCTACAT (sugars l3 d11 l3, PS)”: the calcium oscillation score is 91.3 % of control.

Regarding “ATTCCACACATAAACAAACA (sugars l4 d12 l4, PS)”, the calcium oscillation score is 63.8 % of control.

Consider “ATTTCCAAATTCACTTTTAC (sugars lllldddddddddlddldll, PS)”, for which the calcium oscillation score is 110 % of control.

For the sequence TCCTTCTAAGTACAAT (sugars l4 d8 l4, PS), the calcium oscillation score is 54.1 % of control.

For “TCCACTTAGACACTCTT (sugars l2 d11 l4, PS)”, the calcium oscillation score is 50 % of control.

In the case of “TCCACTTAGACACTCTTT (sugars l3 d13 l2, PS)”, the calcium oscillation score was 37.5 % of control.

With “TCATTCAGCCAATCACA (sugars l3 d11 l3, PS)”, the calcium oscillation score is 45.6 % of control.

For the sequence CCCTAAGCTCTCACTA (sugars l2 d12 l2, PS), the calcium oscillation score was 69.1 % of control.

On to “AGACCACATTTCCATCCC (sugars l1 d15 l2, PS)”, for which the calcium oscillation score is 71.6 % of control.

Take CCCGTGGTCTGTCT (sugars l3 d8 l3, PS): the calcium oscillation score is 89.8 % of control.

With “TTTTTCTCTCTTAACTTT (sugars l4 d10 l4, PS)”, the calcium oscillation score is 94.5 % of control.

Consider “TTACCAATTATCTTTAAATT (sugars l4 d12 l4, PS)”, for which the calcium oscillation score was 61.9 % of control.

CGACTTATCTATCCAT (sugars l4 d9 l3, PS): the calcium oscillation score was 46.2 % of control.

Take “CCGCCTTTAGTGATTACAGG (sugars l3 d14 l3, PS)”: the calcium oscillation score is 4.03 % of control.

For CGCTTCCAGTCCCG (sugars l3 d8 l3, PS), the calcium oscillation score was 107 % of control.

Take “TGGAGCCGATCTTGGACTTG (sugars l3 d14 l3, PS)”: the calcium oscillation score was 0 % of control.

Regarding “ACTCTAAGTAGACCCTGGCC (sugars l3 d14 l3, PS)”, the calcium oscillation score was 4.76 % of control.

As to GTCTTGGCTTTGGCGT (sugars l3 d10 l3, PS), the calcium oscillation score is 20.9 % of control.

On to “TTTCTCAATGTAACCTC (sugars l3 d10 l4, PS)”, for which the calcium oscillation score is 71.6 % of control.

Turning to “ACAGCCATTTTCCATAT (sugars l3 d11 l3, PS)”, the calcium oscillation score was 59.3 % of control.

“TATTTCCAAATTCACTTTTA (sugars lldldlddddddddddllll, PS)”: the calcium oscillation score was 127 % of control.

Take “TCAAACTAATATTAACACT (sugars l4 d11 l4, PS)”: the calcium oscillation score was 80.8 % of control.

“CAACTCAACATTACCCTTAA (sugars l3 d14 l3, PS)”: the calcium oscillation score is 68 % of control.

Take CCAGCGTGATCTTCCA (sugars l3 d10 l3, PS): the calcium oscillation score is 98 % of control.

Regarding ATGTCGATGCTGCC (sugars l3 d8 l3, PS), the calcium oscillation score was 137 % of control.

For the sequence “ATTTCCAAATTCACTTTTAC (sugars llldldddddddddlddlll, PS)”, the calcium oscillation score was 118 % of control.

With “TATTTCCAAATTCACTTTTA (sugars l3 d14 l3, PS)”, the calcium oscillation score was ≥ 200 % of control.

In the case of “TCCTCACTTTACACATTAA (sugars l4 d13 l2, PS)”, the calcium oscillation score was 62.5 % of control.

On to “CCTACTTTATTCCCTTAA (sugars l2 d12 l4, PS)”, for which the calcium oscillation score was 86.8 % of control.

ACTGATCATAATCCTA (sugars l3 d9 l4, PS): the calcium oscillation score was 81.1 % of control.

Consider TGTGATGCAGGAGTTG (sugars l3 d10 l3, PS), for which the calcium oscillation score was 28.7 % of control.

Consider “TCCACAAACCAACTCAACAT (sugars l2 d15 l3, PS)”, for which the calcium oscillation score is 75.2 % of control.

As to “CACCTCATTAAGATCAC (sugars l3 d10 l4, PS)”, the calcium oscillation score was 76.6 % of control.

For the sequence GGCGGTGACTGCGA (sugars l3 d8 l3, PS), the calcium oscillation score was 41.7 % of control.

“TCCCAGCGTGATCTTCCATC (sugars l4 d11 l5, PS)”: the calcium oscillation score was 55.4 % of control.

Consider “TTCATGTTAAATCCCTC (sugars l4 d10 l3, PS)”, for which the calcium oscillation score was 103 % of control.

For the sequence TCCAGTCCCGTCTTTG (sugars l3 d10 l3, PS), the calcium oscillation score was 11.5 % of control.

CCCGCCTTTAGTGATT (sugars l3 d10 l3, PS): the calcium oscillation score is 30.9 % of control.
